Common to all, as to experiment: Cell proliferation assay (Alamar Blue)
What all share (assay type): cell-based
On the technique in general: Alamar Blue is a resazurin reagent that responds to reducing activity.

For assay [1], the system named is NCl-H526. Conditions: 144 h; NCl-H526 tumor cell line; 6 days. A digest of the protocol: (§1)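 Cells seeded at 500–1×10^4/well, allowed 4 h at 37 °C, 5% CO2, then given 9-point compound series (3.16-fold from 30 or 100 μM top). After 6 days, AlamarBlue added 1–4 h and fluorescence read (ex 560/em 590 nm); IC50 from four-parameter nonlinear regression of inhibition versus 0% and 100% controls.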

Assay [2] has as its system JHH7. To be noted: 144 h; JHH7 liver cancer cell line; 6 days. The essentials: as §1
Assay [3] deals with SNU475. Conditions: Homo sapiens, SNU-475, 144 h; SNU475 liver cancer cell line; 6 days. The essentials:
as §1

The test system of assay [4] is JHH5. Conditions: 144 h; JHH5 liver cancer cell line; 6 days. The essentials: as §1
For assay [5], the system named is JHH4. Conditions: JHH-4, 144 h; JHH4 liver cancer cell line; 6 days. A digest of the protocol: as §1
Assay [6] deals with MDA-MB-435S. Conditions: Homo sapiens, 144 h; MDA-MB-435S tumor cell line; 6 days. A digest of the protocol:
as §1

Assay [7] concerns Alexander cells. Conditions: 144 h, liver cancer cell line, 6 days. A digest of the protocol: as §1
The subject of assay [8] is T.T. Conditions: Homo sapiens, TT, 144 h; T.T tumor cell line; 6 days. The essentials: as §1
In assay [9] the test system is K562. Conditions: Homo sapiens, 144 h; K562 tumor cell line; 6 days. The essentials:
as §1

The test system of assay [10] is JHH6. Conditions: 144 h; JHH6 liver cancer cell line; 6 days. A digest of the protocol: as §1
Assay [11] relates to JHH1. Conditions: 144 h; JHH1 liver cancer cell line; 6 days. A digest of the protocol: as §1
In assay [12] the test system is TE-15. Conditions: Homo sapiens, 144 h; TE-15 tumor cell line; 6 days. The essentials:
as §1

The test system of assay [13] is SNU354. Conditions: Homo sapiens, SNU-354, 144 h; SNU354 liver cancer cell line; 6 days. The essentials:
as §1

Assay [14] concerns KM12. To be noted: Homo sapiens, 144 h; KM12 tumor cell line; 6 days. The essentials: as §1
For assay [15], the system named is NCl-H2170. Conditions: 144 h; NCl-H2170 tumor cell line; 6 days. A digest of the protocol:
as §1

Assay [16] concerns NCl-H716. To be noted: 144 h; NCl-H716 tumor cell line; 6 days. The essentials:
as §1

For assay [17], the system named is SNU886. Conditions: SNU-886, 144 h; SNU886 liver cancer cell line; 6 days. A digest of the protocol: as §1
In assay [18] the test system is HUH1. Conditions: Homo sapiens, HuH-1, 144 h; HUH1 liver cancer cell line; 6 days. The essentials: as §1
For assay [19], the system named is 22RV1. Conditions: Homo sapiens, 144 h; 22RV1 tumor cell line; 6 days. The essentials:
as §1

Assay [20] relates to HT55. To be noted: Homo sapiens, 144 h; HT55 tumor cell line; 6 days. A digest of the protocol:
as §1

In assay [21] the test system is SNU423. To be noted: Homo sapiens, SNU-423, 144 h; SNU423 liver cancer cell line; 6 days. A digest of the protocol: as §1
The subject of assay [22] is MFM-223. To be noted: Homo sapiens, 144 h; MFM-223 tumor cell line; 6 days. The essentials: as §1
In assay [23] the test system is HUH7. Conditions: Homo sapiens, Huh-7, 144 h; HUH7 liver cancer cell line; 6 days. The essentials:
as §1

In assay [24] the test system is NCl-H661. To be noted: 144 h; NCl-H661 tumor cell line; 6 days. The essentials: as §1

With `Cc1ccc(F)c(NC(=O)Nc2ccc(-c3cccc4c3c(N)nn4C(=O)CCCCCCCCCCCNC(=O)C[C@H](N)C(=O)N[C@@H](CCC(=O)O)C(=O)O)cc2)c1` [Compound 7], the IC50 is greater than 100 µM in assay [1]; 9.98 µM in assay [2]; 40.7 µM in assay [3]; greater than 100 µM in assay [4]; 39.4 µM in [5]; greater than 100 µM in [6]. In addition, the IC50 in assay [7] is 98 µM; in assay [8], greater than 100 µM; in [9], 23.9 µM; in assay [10] it was 23.6 µM; in assay [11], greater than 100 µM; in assay [12] it was 63.6 µM. Further, the IC50 was 30.2 µM in [13]; 7.72 µM in assay [14]; 22.5 µM in assay [15]; 8.45 µM in [16]; 22 µM in [17]; 21.2 µM in assay [18]. Besides, the IC50 was greater than 100 µM in assay [19]; greater than 100 µM in assay [20]; greater than 100 µM in [21]; 24.1 µM in assay [22]; 22.1 µM in assay [23]; 86.7 µM in [24].
Regarding `Cc1ccc(F)c(NC(=O)Nc2ccc(-c3cccc4c3c(N)nn4C(=O)CCCCCCCCCCCNC(=O)C[C@H](N)C(=O)N[C@@H](CCC(=O)N[C@@H](CCC(=O)N[C@@H](CCC(=O)N[C@@H](CCC(=O)O)C(=O)O)C(=O)O)C(=O)O)C(=O)O)cc2)c1` [Compound 8], the IC50 in [1] worked out at 100 µM; in assay [2], 20.7 µM; in assay [3] it was 57.5 µM; in assay [4], 48.6 µM; in [5], 95.9 µM; in assay [6], 38.5 µM. The IC50 is greater than 100 µM in assay [7]; greater than 100 µM in [8]; greater than 100 µM in assay [9]; 41.7 µM in assay [10]; 35.4 µM in assay [11]; 42.7 µM in assay [12]. The IC50 in assay [13] was found to be 40.6 µM; in assay [14], 12.4 µM; in assay [15], 51.9 µM; in [16] it was 26.9 µM; in assay [17], 61 µM; in assay [18], 31.9 µM. Further, the IC50 in assay [19] was greater than 100 µM; in assay [20], greater than 100 µM; in assay [21], 36.9 µM; in [22], 24 µM; in assay [23] it was 23.6 µM; in assay [24], greater than 100 µM.
`Cc1ccc(F)c(NC(=O)Nc2ccc(-c3cccc4c3c(N)nn4C(=O)CCCCCCCCCCCNC(=O)C[C@H](N)C(=O)O)cc2)c1` [Compound 12]: the IC50 in assay [1], in assay [2], in assay [3], in [4], in assay [5] and in [6] was greater than 30 µM in each case. In addition, the IC50 in [7], in [8], in [9], in assay [10], in assay [11] and in assay [12] was greater than 30 µM in each case. The IC50 in assay [13], in [14], in assay [15], in assay [16], in assay [17] and in assay [18] was greater than 30 µM throughout. The IC50 in [19] is greater than 30 µM; in assay [20] it was greater than 30 µM; in [21], 10.9 µM; in assay [22], greater than 30 µM; in [23], greater than 30 µM; in [24] it was greater than 30 µM.
As for `Cc1ccc(F)c(NC(=O)Nc2ccc(-c3cccc4c3c(N)nn4C(=O)CCCCCNC(=O)C[C@H](N)C(=O)N[C@@H](CCC(=O)N[C@@H](CCC(=O)N[C@@H](CCC(=O)N[C@@H](CCC(=O)O)C(=O)O)C(=O)O)C(=O)O)C(=O)O)cc2)c1` [Compound 5], the IC50 in [1] is greater than 100 µM; in [2] it was 57.8 µM; in assay [3], greater than 100 µM; in [4] it was greater than 100 µM; in assay [5] it was 60.3 µM; in [6], greater than 100 µM. Besides, the IC50 in assay [7] is greater than 100 µM; in [8] it was greater than 100 µM; in assay [9] it was 56.1 µM; in assay [10], 79.3 µM; in assay [11], greater than 100 µM; in assay [12] it was greater than 100 µM. In addition, the IC50 in assay [13] was greater than 100 µM; in assay [14], 45.7 µM; in [15], greater than 100 µM; in [16] it was 66.7 µM; in assay [17], greater than 100 µM; in assay [18], 82.3 µM. Moreover, the IC50 in assay [19] was greater than 100 µM; in assay [20], greater than 100 µM; in assay [21], greater than 100 µM; in [22] it was 48.3 µM; in [23] it was 77.9 µM; in assay [24], greater than 100 µM.
As to `Cc1ccc(F)c(NC(=O)Nc2ccc(-c3cccc4c3c(N)nn4C(=O)C[C@H](N)C(=O)N[C@@H](CCC(=O)N[C@@H](CCC(=O)N[C@@H](CCC(=O)N[C@@H](CCC(=O)O)C(=O)O)C(=O)O)C(=O)O)C(=O)O)cc2)c1` [Compound 2], the IC50 in [1] worked out at 8.94 µM; in assay [2], 2.84 µM; in [3], 6.37 µM; in assay [4], 21.3 µM; in assay [5], 5.83 µM; in assay [6], 30 µM. The half-maximal inhibitory concentration (IC50) in assay [7] turned out to be 5.21 µM; in assay [8], 8.29 µM; in [9], 7.13 µM; in assay [10], 4.38 µM; in assay [11], 11.3 µM; in assay [12], 8.45 µM. In addition, the IC50 is 7.01 µM in assay [13]; 2.94 µM in assay [14]; 3.46 µM in assay [15]; 2.84 µM in assay [16]; 3.75 µM in assay [17]; 6.71 µM in assay [18]. Further, the IC50 in assay [19] was 7.81 µM; in assay [20], 20.4 µM; in [21] it was 14.4 µM; in assay [22], 10.3 µM; in assay [23] it was 4.32 µM; in assay [24] it was 11.3 µM.
Turning to `Cc1ccc(F)c(NC(=O)Nc2ccc(-c3cccc4[nH]nc(N)c34)cc2)c1` [Linifanib, reference compound], the IC50 was 7.8 µM in [1]; 1.83 µM in assay [2]; 5.37 µM in assay [3]; 10 µM in assay [4]; 10.6 µM in assay [5]; 10.7 µM in assay [6]. Moreover, the IC50 in assay [7] was 4.09 µM; in [8], 4.86 µM; in assay [9] it was 10.8 µM; in [10], 4.11 µM; in assay [11] it was 12.2 µM; in assay [12], 3.6 µM. Also, the IC50 is 4.58 µM in assay [13]; 1.39 µM in assay [14]; 4 µM in assay [15]; 4.1 µM in assay [16]; 4.48 µM in [17]; 3.25 µM in assay [18]. Moreover, the IC50 in [19] amounted to 7.5 µM; in [20], 22.3 µM; in assay [21], 9.24 µM; in [22], 1.72 µM; in assay [23], 1.67 µM; in assay [24], 13.3 µM.

A word on the IC50: it is the concentration needed to halve the response being measured. Lower therefore signals greater potency.

These data come from US11351151B2, “Compound having anticancer activity and preparation method and application” (3D Medicines (Beijing) Co., Ltd., priority 2016, dated 2022).
